Test results as given in US20010047099A1, “4-aminopicolinates and their use as herbicides” (priority 2000, published 2001).

Tests used:
[1] = tested on: pigweed (Amaranthus retroflexus); experiment: Preemergence herbicidal activity; type: in vivo; conditions: Table 6 (headed Post-emergent; text: preemergence), after 3 weeks; for pest or weed control at 280 ppm: rate 280 ppm
Excerpt: (§1) Seeds of the desired test plant species were planted in a soil matrix prepared by mixing a loam soil (43 percent silt, 19 percent clay, and 38 percent sand, with a pH of about 8.1 and an organic matter content of bout 1.5 percent) and sand in a 70 to 30 ratio. The soil matrix was contained in plastic pots with a surface area of 113 square centimeters. When required to ensure good germination and healthy plants. a fungicide treatment and/or other chemical or physical treatment was applied.
(§2) A weighed amount, determined by the highest rate to be tested, of each test compound was placed in a 20 mL glass vial and was dissolved in 4 mL of a 97:3 v/v (volume/volume) mixture of acetone and dimethyl sulfoxide to obtain concentrated stock solutions. […] The stock solutions obtained were diluted with a 99.9:0.1 mixture of water and Tween® […] surfactant to obtain application solutions of known concentration. The solutions containing the highest concentration to be tested were prepared by diluting 2 mL aliquots of the stock solution with 15 mL of the mixture and lower concentrations were prepared by serial dilution of the stock solution. A 2.5 mL aliquot of each solution of known concentration was sprayed evenly onto the soil surface (113 sq. cm) of each seeded pot using a Cornwall 5.0 mL glass syringe fitted with a TeeJet TN-3 hollow cone nozzle to obtain thorough coverage of the soil in each pot. Control pots were sprayed in the same manner with the aqueous mixture.
(§3) The treated pots and control pots were placed in a greenhouse maintained with an approximate 15 hr photoperiod and temperatures of about 23-29° C. during the day and 22-28° C. during the night. Nutrients and water were added on a regular basis and supplemental lighting was provided with overhead metal halide 1000-Watt lamps as necessary. The water was added by top-irrigation. After 3 weeks the condition of the test plants that germinated and grew as compared with that of the untreated plants that germinated and grew was determined visually and scored on a scale of 0 to 100 percent where 0 corresponds to no injury and 100 corresponds to complete kill or no germination.

[2] = tested on: morningglory (Ipomoea hederacea); experiment: Preemergence herbicidal activity; type: in vivo; conditions: Table 6 (headed Post-emergent; text: preemergence), after 3 weeks; for pest or weed control at 280 ppm: rate 280 ppm
Excerpt: as §1, §2, §3

[3] = tested on: velvetleaf (Abutilon theophrasti); experiment: Preemergence herbicidal activity; type: in vivo; conditions: Table 6 (headed Post-emergent; text: preemergence), after 3 weeks; for pest or weed control at 280 ppm: rate 280 ppm
Excerpt: as §1, §2, §3

[4] = tested on: chickweed (Stellaria media); experiment: Postemergence herbicidal activity; type: in vivo; conditions: Table 1, visual, after 2 weeks; for pest or weed control at 250 ppm / pest or weed control at 125 ppm: Stellaria media, post-emergence, 336 h, read-out: Post-emergent % Control STEME; for pest or weed control at 125 ppm: rate 125 ppm
Method: (§4) Seeds of the desired test plant species were planted in Grace-Sierra MetroMix® 306 planting mixture, which typically has a pH of 6.0 to 6.8 and an organic matter content of about 30 percent, in plastic pots with a surface area of 64 square centimeters. When required to ensure good germination and healthy plants, a fungicide treatment and/or other chemical or physical treatment was applied. The plants were grown for 7-21 days in a greenhouse with an approximate 15 hr photoperiod which was maintained at about 23-29° C. during the day and 22-28° C. during the night. Nutrients and water were added on a regular basis and supplemental lighting was provided with overhead metal halide 1000-Watt lamps as necessary. The plants were employed for testing when they reached the first or second true leaf stage.
(§5) A weighed amount, determined by the highest rate to be tested, of each test compound was placed in a 20 mL glass vial and was dissolved in 4 mL of a 97:3 v/v (volume/volume) mixture of acetone and dimethyl sulfoxide (DMSO) to obtain concentrated stock solutions. […] The concentrated stock solutions obtained were diluted with an aqueous mixture containing acetone, water, isopropyl alcohol, DMSO, Atplus 411F crop oil concentrate, and Triton X-155 surfactant in a 48.5:39:10:1.5:1.0:0.02 v/v ratio to obtain spray solutions of known concentration. The solutions containing the highest concentration to be tested were prepared by diluting 2 mL aliquots of the stock solution with 13 mL of the mixture and lower concentrations were prepared by serial dilution of the stock solution. Approximately 1.5 mL aliquots of each solution of known concentration were sprayed evenly onto each of the test plant pots using a DeVilbiss atomizer driven by compressed air pressure of 2 to 4 psi ([…]) to obtain thorough coverage of each plant. Control plants were sprayed in the same manner with the aqueous mixture. In this test an application rate of 1 ppm results in the application of approximately 1 g/Ha.
(§6) The treated plants and control plants were placed in a greenhouse as described above and watered by sub-irrigation to prevent wash-off of the test compounds. After 2 weeks the condition of the test plants as compared with that of the untreated plants was determined visually and scored on a scale of 0 to 100 percent where 0 corresponds to no injury and 100 corresponds to complete kill.

[5] = tested on: cocklebur (Xanthium strumarium); experiment: Postemergence herbicidal activity; type: in vivo; conditions: Table 1, visual, after 2 weeks; for pest or weed control at 250 ppm / pest or weed control at 125 ppm: Xanthium strumarium, post-emergence, 336 h, read-out: Post-emergent % Control XANST; for pest or weed control at 125 ppm: rate 125 ppm
Method: as §4, §5, §6

[6] = tested on: wild buckwheat (Polygonum convolvulus); experiment: Postemergence herbicidal activity; type: in vivo; conditions: Table 1, visual, after 2 weeks; for pest or weed control at 250 ppm / pest or weed control at 125 ppm: Fallopia convolvulus, post-emergence, 336 h, read-out: Post-emergent % Control POLCO; for pest or weed control at 125 ppm: rate 125 ppm
Method: as §4, §5, §6

[7] = Amaranthus retroflexus, 504 h, read-out: % Control AMARE
[8] = Ipomoea, 504 h, read-out: % Control IPOHE
[9] = Abutilon theophrasti, 504 h, read-out: % Control ABUTH
[10] = Amaranthus retroflexus, 504 h, rate 560 ppm, read-out: % Control AMARE
[11] = Ipomoea, 504 h, rate 560 ppm, read-out: % Control IPOHE
[12] = Abutilon theophrasti, 504 h, rate 560 ppm, read-out: % Control ABUTH

| melting point | Compound | pest or weed control at 250 ppm ([4]; rate 250 ppm) [%] | pest or weed control at 250 ppm ([5]; rate 250 ppm) [%] | pest or weed control at 250 ppm ([6]; rate 250 ppm) [%] | pest or weed control at 560 ppm [1, 10] [%] | pest or weed control at 560 ppm [2, 11] [%] | pest or weed control at 560 ppm [3, 12] [%] | also measured |
| --- | --- | --- | --- | --- | --- | --- | --- | --- |
| 55 °C | CCCCC(CC)COC(=O)c1nc(Cl)cc(N)c1Cl (centres unmarked) [Compound 2, 2-Ethylhexyl 4-amino-3,6-dichloropyridine-2-carboxylate] | 80 | 95 | 100 | – | – | – | pest or weed control at 280 ppm [1, 7]: 100%; pest or weed control at 280 ppm [2, 8]: 100%; pest or weed control at 280 ppm [3, 9]: 100% |
| 71 to 73 °C | CCCCCOC(=O)c1nc(Cl)cc(N)c1Cl [Compound 8, n-pentyl 4-amino-3,6-dichloropyridine-2-carboxylate] | 90 | 100 | 100 | – | – | – | pest or weed control at 280 ppm [1, 7]: 100%; pest or weed control at 280 ppm [2, 8]: 100%; pest or weed control at 280 ppm [3, 9]: 100% |
| 240 to 241 °C | NC(=O)c1nc(Cl)cc(N)c1Cl [Compound 11, 4-Amino-3,6-dichloropyridine-2-carboxamide] | – | – | – | 0 | 85 | 85 | pest or weed control at 125 ppm [4]: 85%; pest or weed control at 125 ppm [5]: 80%; pest or weed control at 125 ppm [6]: 95% |
| 205 °C (dec.) | Nc1cc(Br)nc(C(=O)O)c1Br [Compound 17, 4-Amino-3,6-dibromopyridine-2-carboxylic acid] | 80 | 100 | 100 | 100 | 100 | 100 | – |
| 173 °C | Nc1c(Cl)c(C(=O)O)nc(Cl)c1C(F)(F)F [Compound 21, 4-Amino-3,6-dichloro-5-trifluoromethylpyridine-2-carboxylic acid] | 20 | 70 | 20 | 80 | 90 | 80 | – |
| 154 to 156 °C | COc1c(Cl)nc(C(=O)O)c(Cl)c1N [Compound 22, 4-Amino-3,6-dichloro-5-methoxypyridine-2-carboxylic acid] | 90 | 80 | 100 | 100 | 100 | 100 | – |
| 127 to 128 °C | COC(=O)c1nc(Cl)c([N+](=O)[O-])c(N)c1Cl [Compound 25, Methyl 4-amino-3,6-dichloro-5-nitropyridine-2-carboxylate] | 50 | 60 | 50 | – | – | – | – |
| 96 to 97 °C | CCCCNc1cc(Cl)nc(C(=O)O)c1Cl [Compound 29, 4-N-butylamino-3,6-dichloropyridine-2-carboxylic acid] | 90 | 95 | 90 | 100 | 100 | 100 | – |
| 153 to 155 °C | O=C(O)c1nc(Cl)cc(N2CCCC2)c1Cl [Compound 36, 4-pyrrolidino-3,6-dichloropyridine-2-carboxylic acid] | – | – | – | 80 | 80 | 95 | pest or weed control at 125 ppm [4]: 40%; pest or weed control at 125 ppm [5]: 50%; pest or weed control at 125 ppm [6]: 80% |
| 84 to 86 °C | Cc1c(Br)nc(C(=O)O)c(Cl)c1N=[N+]=[N-] [Compound 38, Methyl 4-azido-6-bromo-3-chloropyridine-2-carboxylic acid] | – | – | – | – | – | – | – |
| 192 to 193 °C | O=C(O)c1nc(Cl)cc([N+](=O)[O-])c1Cl [Compound 39, 4-Nitro-3,6-dichloropyridine-2-carboxylic acid] | – | – | – | 100 | 100 | 100 | pest or weed control at 125 ppm [4]: 30%; pest or weed control at 125 ppm [5]: 85%; pest or weed control at 125 ppm [6]: 90% |
| 175 °C (dec.) | Nc1cc(Cl)nc(C(=O)O)c1Br [Compound 44, 4-Amino-3-bromo-6-chloropyridine-2-carboxylic acid] | – | – | – | 100 | 100 | 100 | pest or weed control at 125 ppm [4]: 90%; pest or weed control at 125 ppm [5]: 90%; pest or weed control at 125 ppm [6]: 95% |
| 178 °C (dec.) | Nc1c(Cl)c(C(=O)O)nc(C(F)(F)F)c1Cl [Compound 45, 4-Amino-3,5-dichloro-6-trifluoromethylpyridine-2-carboxylic acid] | 0 | 90 | 80 | – | – | – | pest or weed control at 125 ppm ([1]; Amaranthus retroflexus, 504 h, rate 125 ppm, read-out: % Control AMARE): 100%; pest or weed control at 125 ppm ([2]; Ipomoea, 504 h, rate 125 ppm, read-out: % Control IPOHE): 100%; pest or weed control at 125 ppm ([3]; Abutilon theophrasti, 504 h, rate 125 ppm, read-out: % Control ABUTH): 90% |
| – | N,N-diacetyl 4-amino-3,6-dichloropyridine-2-carboxylate [Compound 13] | – | – | – | – | – | – | % Control AMARE ([1]; rate 560 ppm): 100%; % Control IPOHE ([2]; rate 560 ppm): 95%; % Control ABUTH ([3]; rate 560 ppm): 95%; Post-emergent % Control STEME ([4]; rate 250 ppm): 100%; Post-emergent % Control XANST ([5]; rate 250 ppm): 95%; Post-emergent % Control POLCO ([6]; rate 250 ppm): 80% |

| Compound | melting point | pest or weed control at 250 ppm ([4]; rate 250 ppm) [%] | pest or weed control at 250 ppm ([5]; rate 250 ppm) [%] | pest or weed control at 250 ppm ([6]; rate 250 ppm) [%] | pest or weed control at 560 ppm [1, 10] [%] | pest or weed control at 560 ppm [2, 11] [%] | pest or weed control at 560 ppm [3, 12] [%] | also measured |
| --- | --- | --- | --- | --- | --- | --- | --- | --- |
| CCCCOCCOC(=O)c1nc(Cl)cc(N)c1Cl (hydrate or solvate) [Compound 10, butoxyethyl 4-amino-3,6-dichloropyridine-2-carboxylate] | 64 to 67 °C | – | – | – | – | – | – | – |
